Patent publication EP2518054A1, “AMIDE COMPOUND” (Takeda Pharmaceutical Company Limited, priority 2009, dated 2011)

Molecular target: T1, human GPR52 (Homo sapiens, UniProt Q9Y2T5)
T1 construct: expressed in transfected cells; host or cells: CHO(dhfr-) cells
Experiment: Increase of intracellular cAMP concentration in human GPR52-expressing CHO cell (AlphaScreen cAMP assay)
Type: cell-based
Conditions: human GPR52-expressing CHO(dhfr-) cells; for activity at 1 µM: CHO, 1µM test compound, 100% = cAMP with 1 µM Reference Example 79, 0% = DMSO, 37°C, 30 min, read-out: GPR52 agonist activity (%); for EC50: concentration of the test compound at which it shows 50% activity, read-out: GPR52 agonist activity EC50
Method: Increase of intracellular cAMP concentration in human GPR52-expressing CHO cell
Using OptiPlate-384 (PerkinElmer Inc.), 1×10^4 human GPR52-expressing CHO(dhfr-) cells were incubated together with various concentration(10^-5µM - 10µm) of a test compound in an assay buffer (30 µL, HBSS (containing Ca^2+ and Mg^2+), 0.5% BSA, 100 µM IBMX, 100 µM Ro20-1724, 5 mM HEPES (pH 7.55)) at 37°C for 30 min. Thereafter, according to the protocol of AlphaScreen CAMP Assay Kit (PerkinElmer Inc.), the intracellular cAMP concentration was measured by EnVision (PerkinElmer Inc.). The GPR52 agonist activity was calculated, assuming the intracellular cAMP concentration in the presence of […] N-(2-hydroxyethyl)-3-[2-[3-(trifluoromethyl)benzyl]-1-benzofuran-4-yl]benzamide (Reference Example 79) to be 100% and assuming the intracellular cAMP concentration when DMSO was added instead of the test compound to be 0%.

T1 sequence (Q9Y2T5 whole entry): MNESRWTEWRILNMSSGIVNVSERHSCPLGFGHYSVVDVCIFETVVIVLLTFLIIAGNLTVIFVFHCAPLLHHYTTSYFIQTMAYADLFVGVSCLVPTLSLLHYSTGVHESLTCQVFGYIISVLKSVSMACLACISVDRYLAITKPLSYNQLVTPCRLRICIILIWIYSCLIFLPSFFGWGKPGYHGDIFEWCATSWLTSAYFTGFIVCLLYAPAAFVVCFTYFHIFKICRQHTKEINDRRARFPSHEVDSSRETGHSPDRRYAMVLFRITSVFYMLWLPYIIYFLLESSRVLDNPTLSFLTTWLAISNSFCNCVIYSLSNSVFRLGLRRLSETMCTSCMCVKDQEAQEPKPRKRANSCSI

activity at 1 µM	EC50	Compound
104%	14 nM	Cc1nn(-c2ccc(F)c3cc(Cc4cc(F)cc(Cl)c4)sc23)c(CO)c1C(=O)NCCO [Example 90, 1-[2-(3-chloro-5-fluorobenzyl)-4-fluoro-1-benzothiophen-7-yl]-N-(2-hydroxyethyl)-5-(hydroxymethyl)-3-methyl-1H-pyrazole-4-carboxamide]
99%	–	Cc1nn(-c2ccc(F)c3cc(Cc4cc(F)cc(Cl)c4)sc23)c(CO)c1C(N)=O [Example 91, 1-[2-(3-chloro-5-fluorobenzyl)-4-fluoro-1-benzothiophen-7-yl]-5-(hydroxymethyl)-3-methyl-1H-pyrazole-4-carboxamide]
70%	–	Cc1cccc(Cc2cc3cccc(-n4nc(C)c(C(=O)NCC(N)=O)c4C)c3s2)c1 [Example 93, N-(2-amino-2-oxoethyl)-3,5-dimethyl-1-[2-(3-methylbenzyl)-1-benzothiophen-7-yl]-1H-pyrazole-4-carboxamide]
96%	–	Cc1cccc(Cc2cc3cccc(-n4nc(C)c(C(=O)NCCO)c4C)c3s2)c1 [Example 94, N-(2-hydroxyethyl)-3,5-dimethyl-1-[2-(3-methylbenzyl)-1-benzothiophen-7-yl]-1H-pyrazole-4-carboxamide]
95%	–	Cc1cccc(Cc2cc3cccc(-n4nc(C)c(C(N)=O)c4C)c3s2)c1 [Example 95, 3,5-dimethyl-1-[2-(3-methylbenzyl)-1-benzothiophen-7-yl]-1H-pyrazole-4-carboxamide]
84%	–	COc1cc(Cc2cc3cccc(-n4nc(C)c(C(=O)NCC(N)=O)c4C)c3s2)ccc1F [Example 96, N-(2-amino-2-oxoethyl)-1-[2-(4-fluoro-3-methoxybenzyl)-1-benzothiophen-7-yl]-3,5-dimethyl-1H-pyrazole-4-carboxamide]
94%	–	COc1cc(Cc2cc3cccc(-n4nc(C)c(C(=O)NCCO)c4C)c3s2)ccc1F [Example 97, 1-[2-(4-fluoro-3-methoxybenzyl)-1-benzothiophen-7-yl]-N-(2-hydroxyethyl)-3,5-dimethyl-1H-pyrazole-4-carboxamide]
98%	–	COc1cc(Cc2cc3cccc(-n4nc(C)c(C(N)=O)c4C)c3s2)ccc1F [Example 98, 1-[2-(4-fluoro-3-methoxybenzyl)-1-benzothiophen-7-yl]-3,5-dimethyl-1H-pyrazole-4-carboxamide]
99%	13 nM	Cc1nn(-c2cccc3cc(Cc4cc(F)cc(F)c4)sc23)c(C)c1C(=O)NCCO [Example 99, 1-[2-(3,5-difluorobenzyl)-1-benzothiophen-7-yl]-N-(2-hydroxyethyl)-3,5-dimethyl-1H-pyrazole-4-carboxamide]
104%	–	Cc1nn(-c2cccc3cc(Cc4cc(F)cc(F)c4)sc23)c(C)c1C(N)=O [Example 100, 1-[2-(3,5-difluorobenzyl)-1-benzothiophen-7-yl]-3,5-dimethyl-1H-pyrazole-4-carboxamide]
96%	–	Cc1nn(-c2cccc3cc(Cc4cc(F)cc(F)c4)sc23)c(C)c1C(=O)NCC(N)=O [Example 101, N-(2-amino-2-oxoethyl)-1-[2-(3,5-difluorobenzyl)-1-benzothiophen-7-yl]-3,5-dimethyl-1H-pyrazole-4-carboxamide]
99%	–	CNC(=O)c1c(C)nn(-c2ccc(F)c3cc(Cc4cccc(C(F)(F)F)c4)sc23)c1C [Example 102, 1-[4-fluoro-2-[3-(trifluoromethyl)benzyl]-1-benzothiophen-7-yl]-N,3,5-trimethyl-1H-pyrazole-4-carboxamide]
97%	–	Cc1nn(-c2ccc(F)c3cc(Cc4cccc(C(F)(F)F)c4)sc23)c(C)c1C(=O)NC1CC1 [Example 103, N-cyclopropyl-1-[4-fluoro-2-[3-(trifluoromethyl)benzyl]-1-benzothiophen-7-yl]-3,5-dimethyl-1 H-pyrazole-4-carboxamide]
93%	–	Cc1nn(-c2cccc3sc(Cc4cccc(C(F)(F)F)c4)cc23)c(C)c1C(N)=O [Example 104, 3,5-dimethyl-1-[2-[3-(trifluoromethyl)benzyl]-1-benzothiophen-4-yl]-1H-pyrazole-4-carboxamide]
94%	–	Cc1nn(-c2cccc3sc(Cc4cccc(C(F)(F)F)c4)cc23)c(C)c1C(=O)NCC(N)=O [Example 105, N-(2-amino-2-oxoethyl)-3,5-dimethyl-1-[2-[3-(trifluoromethyl)benzyl]-1-benzothiophen-4-yl]-1H-pyrazole-4-carboxamide]
97%	–	Cc1nn(-c2cccc3sc(Cc4cccc(C(F)(F)F)c4)cc23)c(C)c1C(=O)NCCO [Example 106, N-(2-hydroxyethyl)-3,5-dimethyl-1-[2-[3-(trifluoromethyl)benzyl]-1-benzothiophen-4-yl]-1H-pyrazole-4-carboxamide]
100%	–	Cc1nn(-c2cccc3sc(Cc4cc(F)cc(Cl)c4)cc23)c(C)c1C(=O)NCC(N)=O [Example 107, N-(2-amino-2-oxoethyl)-1-[2-(3-chloro-5-fluorobenzyl)-1-benzothiophen-4-yl]-3,5-dimethyl-1H-pyrazole-4-carboxamide]
93%	–	Cc1nn(-c2cccc3sc(Cc4cc(F)cc(Cl)c4)cc23)c(C)c1C(=O)NCCO [Example 108, 1-[2-(3-chloro-5-fluorobenzyl)-1-benzothiophen-4-yl]-N-(2-hydroxyethyl)-3,5-dimethyl-1H-pyrazole-4-carboxamide]
89%	–	Cc1nn(-c2cccc3sc(Cc4cc(F)cc(Cl)c4)cc23)c(C)c1C(N)=O [Example 109, 1-[2-(3-chloro-5-fluorobenzyl)-1-benzothiophen-4-yl]-3,5-dimethyl-1H-pyrazole-4-carboxamide]
94%	–	Cn1nc(-c2cccc3cc(Cc4cccc(C(F)(F)F)c4)sc23)cc1C(=O)NCC(N)=O [Example 110, N-(2-amino-2-oxoethyl)-1-methyl-3-[2-[3-(trifluoromethyl)benzyl]-1-benzothiophen-7-yl]-1H-pyrazole-5-carboxamide]
89%	38 nM	Cn1nc(-c2cccc3cc(Cc4cccc(C(F)(F)F)c4)sc23)cc1C(=O)NCCO [Example 111, N-(2-hydroxyethyl)-1-methyl-3-[2-[3-(trifluoromethyl)benzyl]-1-benzathiophen-7-yl]-1H-pyrazole-5-carboxamide]
